Data on two molecules can be found in patent US11225512B2, “Compositions and methods for ceramide-elevating therapeutic strategies” (University of New Hampshire, priority 2017, dated 2022).

One test concerns ceramide neutralization. Description: Decitabine treatment of FLT3^ITD transgenic mice, gene expression by qRT-PCR. Format: in vivo. On the procedure: Decitabine treatment downregulates ceramide neutralization in FLT3^ITD transgenic mice while augmenting gdf1 expression. 8-12 week old mice harboring an internal tandem duplication in the Flt3 gene were treated with the hypomethylating agent, decitabine, at 0.2 mg/kg, 3 times weekly, for 6 weeks. Results were generated using qRT-PCR and normalized to housekeeping genes (Actb, RpII, Tbp). […] Treatment with decitabine reversed ugcg expression and led to downregulation of cers1 as compared to control mice. […] As expected, other related genes are also affected by decitabine treatment.
Hypomethylating Treatment Reverses the Effect of Leukemogenic Transgenes on Ceramide Detoxification. Myeloid hematological malignancies such as AML and myelodysplastic syndrome (MDS) are frequently treated with hypomethylating agents such as decitabine. In particular, treatment and management of MDS commonly utilizes these strategies to attempt to prevent the transformation of this bone marrow failure-like condition to AML. In this experiment, we utilized aged FLT3^ITD transgenic mice treated with/without decitabine and monitored the changes to the expression of genes in the bone marrow that regulate the production of bioactive sphingolipids.

Test [1] deals with AML cell lines (HL-60, Kasumi-1 and Kasumi-3). As to the kind of experiment: Gdf1 treatment of AML cell lines, gene expression by qRT-PCR. Format: cell-based. The following applies: 50 ng/mL, 24 hours; HL-60, Kasumi-1, Kasumi-3; compared to untreated counterparts. On the procedure: Gdf1 treatment of AML cell lines triggers downregulation of ceramide neutralization pathways. AML cell lines (HL-60, Kasumi-1 and Kasumi-3), were treated with recombinant human gdf1 at a concentration of 50 ng/mL for 24 hours. Results were obtained via qRT-PCR and compared to housekeeping genes (Actb, RpII).

For test [2], the system named is hematopoietic progenitor cells. Description: Gdf1 treatment of bone marrow, flow cytometry immunophenotyping of LT-HSC and MPP. The format is cell-based. The following applies: 50 ng/mL, 24 hours; bone marrow of hybrid mice. On the procedure: Gdf1 treatment promotes quiescence exit of hematopoietic progenitor cells. Bone marrow of hybrid mice was treated with human recombinant Gdf1 at a concentration of 50 ng/mL for 24 hours. Flow cytometry was used in immunophenotyping cells into subpopulations of long-term hematopoietic stem cells (LT-HSC) and multipotent progenitor cells (MPP). LT-HSCs were defined as Lin−, C-kit+, Sca-1+, CD150+, CD48−. MPPs were defined as Lin−, C-kit+, Sca-1+, CD150−, CD48−. Quiescent cells were defined as CD34+.

Take `Nc1ncn([C@H]2C[C@H](O)[C@@H](CO)O2)c(=O)n1` [decitabine, 5-aza-2′-deoxycytidine]: in the test with ceramide neutralization (FLT3^ITD mice, decitabine 0.2 mg/kg, 3 times weekly, 6 weeks), the gdf1 expression entry is “upregulated”. For the same molecule, the cers1 expression result in the test on ceramide neutralization (FLT3^ITD mice, decitabine 0.2 mg/kg, 3 times weekly, 6 weeks, compared to control mice) is “downregulation”. Moreover, the ugcg expression entry in the test with ceramide neutralization (FLT3^ITD mice, decitabine 0.2 mg/kg, 3 times weekly, 6 weeks, qRT-PCR normalized to Actb, RpII, Tbp) was “reversed”. In addition, the “relationship between gdf1 and either ugcg or sgms1 expression” value in the test on ceramide neutralization (bone marrow of aged FLT3^ITD transgenic mice treated with/without decitabine) is given as “inverse relationship”.

B1: Gdf1: Recombinant human Growth Differentiation Factor 1, a BMP family member and TGF-beta signaling pathway intermediate (protein, listed as Homo sapiens)
chain: MPPPQQGPCGHHLLLLLALLLPSLPLTRAPVPPGPAAALLQALGLRDEPQGAPRLRPVPPVMWRLFRRRDPQETRSGSRRTSPGVTLQPCHVEELGVAGNIVRHIPDRGAPTRASEPASAAGHCPEWTVVFDLSAVEPAERPSRARLELRFAAAAAAAPEGGWELSVAQAGQGAGADPGPVLLRQLVPALGPPVRAELLGAAWARNASWPRSLRLALALRPRAPAACARLAEASLLLVTLDPRLCHPLARPRRDAEPVLGGGPGGACRARRLYVSFREVGWHRWVIAPRGFLANYCQGQCALPVALSGSGGPPALNHAVLRALMHAAAPGAADLPCCVPARLSPISVLFFDNSDNVVLRQYEDMVVDECGCR
In the case of B1, in test [1], the cers1 expression result is given as “downregulated” and the ugcg expression result is recorded as “downregulated”. For the same molecule, in test [2], the “cells bearing the CD34 marker (quiescent cells) in LT-HSC and MPP populations” value is recorded as “decrease”; the “population of MPPs in the overall pool of analyzed cells” value was “increase”.
